Reference: patent US20250230171A1 (MOMA Therapeutics, Inc., priority 2023, published 2025)
Read-outs that look alike come from different tables or passages of the source.

Key:
[1] = biological target: biotinylated Avi-POLθ[2-894] (Homo sapiens (Human), UniProt O75417); assay: POLθ ATPase assay (ADP-Glo); conditions: n=2; read-out: Biochemical ATPase ADPGlo IC50
DLD1 BRCA2 (−/−) cells = assay: 7-day cell viability assay (CellTiter-Glo), DLD1 BRCA2 (−/−); format: cell-based, human; conditions: 7-day viability, n=2, read-out: Viability IC50 (uM) DLD1 BRCA2 null
In short: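 7-day growth assay in DLD1 cells with or without BRCA2; seeding densities chosen to keep log-linear growth. Compound: 10 uM top, 3-fold, 9 points. Endpoint: CTG ATP luminescence at RT.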

DLD1 WT cells = assay: 7-day cell viability assay (CellTiter-Glo), DLD1 parental (WT); format: cell-based, human; conditions: 7-day viability, n=2

Chain of biotinylated Avi-POLθ[2-894] (O75417 2-894): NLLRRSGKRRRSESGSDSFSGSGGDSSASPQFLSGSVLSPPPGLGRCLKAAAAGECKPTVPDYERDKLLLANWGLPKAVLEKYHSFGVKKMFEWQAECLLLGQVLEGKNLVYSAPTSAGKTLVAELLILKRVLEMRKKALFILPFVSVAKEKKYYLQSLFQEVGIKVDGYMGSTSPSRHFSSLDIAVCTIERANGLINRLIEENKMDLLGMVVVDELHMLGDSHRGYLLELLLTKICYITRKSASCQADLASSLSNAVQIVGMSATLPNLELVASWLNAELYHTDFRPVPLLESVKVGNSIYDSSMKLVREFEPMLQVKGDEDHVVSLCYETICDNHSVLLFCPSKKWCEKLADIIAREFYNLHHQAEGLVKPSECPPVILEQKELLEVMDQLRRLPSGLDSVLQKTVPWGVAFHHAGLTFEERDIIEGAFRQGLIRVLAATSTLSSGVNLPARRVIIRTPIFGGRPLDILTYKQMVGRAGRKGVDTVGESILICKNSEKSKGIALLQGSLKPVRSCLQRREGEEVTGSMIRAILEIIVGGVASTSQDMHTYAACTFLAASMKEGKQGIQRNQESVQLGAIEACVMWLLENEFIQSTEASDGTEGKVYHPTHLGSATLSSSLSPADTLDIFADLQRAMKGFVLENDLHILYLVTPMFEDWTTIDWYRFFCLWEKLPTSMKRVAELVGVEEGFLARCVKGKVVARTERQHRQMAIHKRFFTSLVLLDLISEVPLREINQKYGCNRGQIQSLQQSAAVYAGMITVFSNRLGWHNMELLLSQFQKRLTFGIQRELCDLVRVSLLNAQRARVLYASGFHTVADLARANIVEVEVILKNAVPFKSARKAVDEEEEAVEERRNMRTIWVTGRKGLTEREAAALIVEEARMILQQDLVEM

SMILES | IC50 [1] [nM] | IC50 (DLD1 BRCA2 (−/−) cells; Homo sapiens, DLD-1, 168 h) [µM] | IC50 (DLD1 WT cells; Homo sapiens, DLD-1, 168 h) [µM] | IC50 (DLD1 BRCA2 (−/−) cells) [µM] | IC50 (DLD1 WT cells) [µM]
COc1cnc(Cl)cc1-c1cc(C)ncc1C(=O)Nc1nc2c(s1)CN(C(=O)c1ccc(OC(F)F)cn1)C2 [Example 93, 2′-chloro-N-(5-(5-(difluoromethoxy)picolinoyl)-5,6-dihydro-4H-pyrrolo[3,4-d]thiazol-2-yl)-5′-methoxy-6-methyl-[4,4′-bipyridine]-3-carboxamide] | 1 to 15 | 0.001 to 0.1 | 0.001 to 0.5 | – | –
COc1cnc(Cl)cc1-c1cc(C)ncc1C(=O)Nc1nc2c(s1)CN(C(=O)c1cc(C(F)F)ccn1)C2 [Example 94, 2′-chloro-N-(5-(4-(difluoromethyl)picolinoyl)-5,6-dihydro-4H-pyrrolo[3,4-d]thiazol-2-yl)-5′-methoxy-6-methyl-[4,4′-bipyridine]-3-carboxamide] | 1 to 15 | 0.001 to 0.1 | ≥ 10 | – | –
COc1cnc(Cl)cc1-c1cc(C)ncc1C(=O)Nc1nc2c(s1)CN(C(=O)c1cc(C(C)C)n(C)n1)C2 [Example 95, 2′-chloro-N-(5-(5-isopropyl-1-methyl-1H-pyrazole-3-carbonyl)-5,6-dihydro-4H-pyrrolo[3,4-d]thiazol-2-yl)-5′-methoxy-6-methyl-[4,4′-bipyridine]-3-carboxamide] | 1 to 15 | 0.001 to 0.1 | ≥ 10 | – | –
COc1cn2cncc2cc1-c1cc(C)ncc1C(=O)Nc1nc2c(s1)CN(C(=O)c1ccc(C(F)F)cn1)C2 [Example 117] | 1 to 15 | 0.001 to 0.1 | ≥ 10 | – | –
COc1ncc(Cl)cc1-c1cc(C)ncc1C(=O)Nc1nc2c(s1)CN(C(=O)c1ccccn1)C2 [Example 118] | 1 to 15 | 0.001 to 0.1 | 2 to 5 | – | –
COc1ccc(C(=O)N2Cc3nc(NC(=O)c4cnc(C)cc4-c4cc(Cl)ncc4OC)sc3C2)nc1 [Example 121] | 1 to 15 | 0.001 to 0.1 | ≥ 10 | – | –
COc1ccc(C#N)cc1-c1cc(C)ncc1C(=O)Nc1nc2c(s1)CN(C(=O)c1ccc(C(F)F)cn1)C2 [Example 122] | 1 to 15 | 0.001 to 0.1 | 5 to 10 | – | –
COc1ccc(C#N)cc1-c1cc(C)ncc1C(=O)Nc1nc2c(s1)CN(C(=O)c1c(Cl)cnn1C)C2 [Example 123] | 1 to 15 | 0.001 to 0.1 | ≥ 10 | – | –
COc1cnc(Cl)cc1-c1cc(C)ncc1C(=O)Nc1nc2c(s1)CN(C(=O)c1ccc(C(F)(F)F)cn1)C2 [Example 132] | 1 to 15 | 0.001 to 0.1 | 5 to 10 | – | –
COc1cnc(Cl)cc1-c1cc(C)ncc1C(=O)Nc1nc2c(s1)CC(Nc1ccc(O)cc1)CC2 (stereo not drawn) [Example 135] | 1 to 15 | 0.5 to 2 | 5 to 10 | – | –
COc1cnc(Cl)cc1-c1cc(C)ncc1C(=O)Nc1nc2c(s1)CN(C(=O)C1CC3(CC(OC)C3)C1)C2 (stereo not drawn) [Example 140] | 1 to 15 | 0.001 to 0.1 | 5 to 10 | – | –
COc1cnc(Cl)cc1-c1cc(C)ncc1C(=O)Nc1nc2c(s1)CC(N[C@H]1C[C@H](O)C1)CC2 (stereo partly drawn) [Example 141, 2′-Chloro-N-(6-(((1r,3r)-3-hydroxycyclobutyl)amino)-4,5,6,7-tetrahydrobenzo[d]thiazol-2-yl)-5′-methoxy-6-methyl-[4.4′-bipyridine]-3-carboxamide] | 1 to 15 | – | – | 0.001 to 0.1 | ≥ 10
COc1cnc(Cl)cc1-c1cc(C)ncc1C(=O)Nc1nc2c(s1)CN(C(=O)c1ncccc1OC(F)F)C2 [Example 145] | 1 to 15 | 0.001 to 0.1 | ≥ 10 | – | –
COc1cnc(Cl)cc1-c1cc(C)ncc1C(=O)Nc1nc2c(s1)CN(C(=O)c1c(OC)cnn1C)C2 [Example 146] | 1 to 15 | 0.001 to 0.1 | ≥ 10 | – | –
COc1cnc(Cl)cc1-c1cc(C)ncc1C(=O)Nc1nc2c(s1)CN(C(=O)C1CC3(CC(O)C3)C1)C2 (stereo not drawn) [Example 148] | 1 to 15 | 0.1 to 0.25 | ≥ 10 | – | –
COc1ccncc1C(=O)N1Cc2nc(NC(=O)c3cnc(C)cc3-c3cc(Cl)ncc3OC)sc2C1 [Example 155] | 1 to 15 | 0.5 to 2 | ≥ 10 | – | –
COc1cnc(Cl)cc1-c1cc(C)ncc1C(=O)Nc1nc2c(s1)CN(C(=O)c1c(Cl)cnn1C)C2 [Example 156] | 1 to 15 | 0.001 to 0.1 | ≥ 10 | – | –
COc1cnc(Cl)cc1-c1cc(C)ncc1C(=O)Nc1nc2c(s1)CN(C(=O)c1nn(C)cc1OC)C2 [Example 157] | 1 to 15 | 0.25 to 0.5 | ≥ 10 | – | –
COc1cnc(Cl)cc1-c1cc(C)ncc1C(=O)Nc1nc2c(s1)CN(C(=O)c1ncccc1C(F)F)C2 [Example 158] | 1 to 15 | 0.1 to 0.25 | ≥ 10 | – | –
COc1cnc(Cl)cc1-c1cc(C)ncc1C(=O)Nc1nc2c(s1)CN(C(=O)c1ccn(C(F)F)n1)C2 [Example 159] | 1 to 15 | 0.1 to 0.25 | ≥ 10 | – | –
COc1cnc(Cl)cc1-c1cc(C)ncc1C(=O)Nc1nc2c(s1)CN(C(=O)c1cn(C)nc1Cl)C2 [Example 161] | 1 to 15 | 0.5 to 2 | ≥ 10 | – | –
COc1cnc(Cl)cc1-c1cc(C)ncc1C(=O)Nc1nc2c(s1)CN(C(=O)[C@H]1C[C@H](C(F)(F)F)C1)C2 [Example 164, 4-(5-Cyano-2-methoxyphenyl)-6-methyl-N-(5-(pyridin-3-ylsulfonyl)-5,6-dibydro-4H-pyrrolo[3,4-d]thiazol-2-yl)nicotinamide] | 1 to 15 | 0.1 to 0.25 | ≥ 10 | – | –

SMILES | IC50 [1] [nM] | IC50 (DLD1 BRCA2 (−/−) cells; Homo sapiens, DLD-1, 168 h) [µM] | IC50 (DLD1 WT cells; Homo sapiens, DLD-1, 168 h) [µM] | IC50 (DLD1 BRCA2 (−/−) cells) [µM] | IC50 (DLD1 WT cells) [µM]
COc1cnccc1C(=O)N1Cc2nc(NC(=O)c3cnc(C)cc3-c3cc(Cl)ncc3OC)sc2C1 [Example 168] | 1 to 15 | 0.1 to 0.25 | ≥ 10 | – | –
COc1cnc(Cl)cc1-c1cc(C)ncc1C(=O)Nc1nc2c(s1)CN(C(=O)c1ncccc1OC)C2 [Example 169] | 1 to 15 | 0.1 to 0.25 | ≥ 10 | – | –
COc1cnc(Cl)cc1-c1cc(C)ncc1C(=O)Nc1nc2c(s1)CN(C(=O)c1ccnn1C)C2 [Example 170] | 1 to 15 | 0.1 to 0.25 | ≥ 10 | – | –
COc1cnc(Cl)cc1-c1cc(C)ncc1C(=O)Nc1nc2c(s1)CN(C(=O)[C@H]1C[C@@H](OC)C1)C2 [Example 171] | 1 to 15 | 0.1 to 0.25 | ≥ 10 | – | –
COc1cnc(Cl)cc1-c1cc(C)ncc1C(=O)Nc1nc2c(s1)CN(C(=O)c1cccnc1OC)C2 [Example 172] | 1 to 15 | 0.001 to 0.1 | ≥ 10 | – | –
COc1cnc(Cl)cc1-c1cc(C)ncc1C(=O)Nc1nc2c(s1)CN(C(=O)c1ccc(O)cn1)C2 [Example 174] | 1 to 15 | 0.1 to 0.25 | ≥ 10 | – | –
COc1cnc(Cl)cc1-c1cc(C)ncc1C(=O)Nc1nc2c(s1)CN(C(=O)c1cn(C(C)C)nc1C)C2 [Example 175] | 1 to 15 | ≥ 2 | ≥ 10 | – | –
COc1cnc(Cl)cc1-c1cc(C)ncc1C(=O)Nc1nc2c(s1)CN(C(=O)C1CC(CC(F)F)C1)C2 (stereo not drawn) [Example 177] | 1 to 15 | 0.001 to 0.1 | ≥ 10 | – | –
COc1ccc(C#N)cc1-c1cc(C)ncc1C(=O)Nc1nc2c(s1)CN(C(=O)C1CC(OC(F)F)C1)C2 (stereo not drawn) [Example 179] | 1 to 15 | 0.001 to 0.1 | ≥ 10 | – | –
COc1cnc(Cl)cc1-c1cc(C)ncc1C(=O)Nc1nc2c(s1)CN(C(=O)[C@H]1C[C@@H](C#N)C1)C2 [Example 190] | 1 to 15 | 0.25 to 0.5 | ≥ 10 | – | –
COc1cnc(Cl)cc1-c1cc(C)ncc1C(=O)Nc1nc2c(s1)CN(C(=O)c1ccnc(C)c1)C2 [Example 194] | 1 to 15 | 0.001 to 0.1 | ≥ 10 | – | –
COc1cnc(Cl)cc1-c1cc(C)ncc1C(=O)Nc1nc2c(s1)CN(C(=O)C1CC(OC(F)(F)F)C1)C2 (stereo not drawn) [Example 196] | 1 to 15 | 0.001 to 0.1 | ≥ 10 | – | –
COc1cnc(Cl)cc1-c1cc(C)ncc1C(=O)Nc1nc2c(s1)CN(C(=O)c1ccn(C)n1)C2 [Example 197] | 1 to 15 | 0.25 to 0.5 | ≥ 10 | – | –
COc1cnc(Cl)cc1-c1cc(C)ncc1C(=O)Nc1nc2c(s1)CN(C(=O)c1ccc(C)cn1)C2 [Example 199] | 1 to 15 | 0.1 to 0.25 | 5 to 10 | – | –
COc1cnc(Cl)cc1-c1cc(C)ncc1C(=O)Nc1nc2c(s1)CN(C(=O)[C@@H]1CCCCO1)C2 [Example 216, (S) 2′-chloro-5′-methoxy-6-methyl-N-(5-(tetrahydro-2H-pyran-2-carbonyl)-5,6-dihydro-4H-pyrrolo[3,4-d]thiazol-2-yl)-[4,4′-bipyridine]-3-carboxamide] | 1 to 15 | 0.1 to 0.25 | ≥ 10 | – | –
COc1ccc(C#N)cc1-c1cc(C)ncc1C(=O)Nc1nc2c(s1)CN(C(=O)C1CC(C(F)F)C1)C2 (stereo not drawn) [Example 244] | 1 to 15 | 0.5 to 2 | ≥ 10 | – | –
COc1ccc(C#N)cc1-c1cc(C)ncc1C(=O)Nc1nc2c(s1)CN(S(=O)(=O)NC(C)C)C2 [Example 269] | 1 to 15 | ≥ 2 | ≥ 10 | – | –
CCCNS(=O)(=O)N1Cc2nc(NC(=O)c3cnc(C)cc3-c3cc(C#N)ccc3OC)sc2C1 [Example 270] | 1 to 15 | 0.5 to 2 | ≥ 10 | – | –
COc1ccc(C#N)cc1-c1cc(C)ncc1C(=O)Nc1nc2c(s1)CN(C(=O)c1ccccn1)C2 [Example 276] | 1 to 15 | ≥ 2 | ≥ 10 | – | –
CCNS(=O)(=O)N1Cc2nc(NC(=O)c3cnc(C)cc3-c3cc(C#N)ccc3OC)sc2C1 [Example 299] | 1 to 15 | 0.5 to 2 | ≥ 10 | – | –
COc1ccc(C#N)cc1-c1cc(C)ncc1C(=O)Nc1nc2c(s1)CN(C(=O)c1ccc(C)cn1)C2 [Example 304] | 1 to 15 | 0.1 to 0.25 | ≥ 10 | – | –
